Data: patent publication US20240277861A1, “ANTI-HEPATITIS B VIRUS AGENT TARGETING HOST FACTOR LIPG” (PUROTECH BIO, INC., priority 2021, published 2024)

Columns and labels:
HBV [1] = experiment: HBV attachment and uptake assay in HepG2-NTCP-C4 cells; type: cell-based; conditions: HepG2-NTCP-C4 control cells
Procedure: HBV-DNA and cccDNA were quantified by qPCR as described below. Total DNA was extracted from cells using DNeasy Blood & Tissue Kit (Qiagen, Hilden, Germany). HBV-DNA was quantified by qPCR analysis as previously reported (Honda. M. et al., J. Infect. Dis., 213, 1096-1106, 2016). The extracted DNA (50 ng) was treated with 10 U of Plasmid safe DNase I (Epicentre, Madison. WI) at 37° C. for 60 minutes and then treated at 70° C. for 30 minutes for DNase inactivation, cccDNA was quantified by qPCR analysis as previously reported (Honda, M. et al., J. Infect. Dis. 213, 1096-1106, 2016). Quantitative RT-PCR was performed as described below. The GenElute™ Mammalian Total RNA Miniprep Kit (Sigma-Aldrich) was used for extraction of total RNA, and the High Capacity cDNA Reverse Transcription Kit (Applied Biosystems, Carlsbad, CA) was used for cDNA synthesis. The 7500 Real Time PCR System (Applied Biosystems) was used for RT-PCR. Primers 5′-[…]-3′ (SEQ ID NO: 31) and 5′-[…]-3′ (SEQ ID NO: 32) and a probe 5′-FAM-[…]-MGB-3′ (SEQ ID NO: 33) were used for pregenomic RNA. Primer pairs and probes for LIPG, NTCP. […]
When the abundance of LIPG expression was compared among different liver cell lines. […] HBV attachment was detected by qPCR of HBV-DNA at 3 hours after HBV inoculation at 4° C. in the presence or absence of the compound (heparin or heparanase). […]

HBV [2] = experiment: HBV attachment and uptake assay in HepG2-NTCP-C4-LIPG cells; type: cell-based; conditions: concentration-dependent
Procedure: (§1) HBV-DNA and cccDNA were quantified by qPCR as described below. Total DNA was extracted from cells using DNeasy Blood & Tissue Kit (Qiagen, Hilden, Germany). HBV-DNA was quantified by qPCR analysis as previously reported (Honda. M. et al., J. Infect. Dis., 213, 1096-1106, 2016). The extracted DNA (50 ng) was treated with 10 U of Plasmid safe DNase I (Epicentre, Madison. WI) at 37° C. for 60 minutes and then treated at 70° C. for 30 minutes for DNase inactivation, cccDNA was quantified by qPCR analysis as previously reported (Honda, M. et al., J. Infect. Dis. 213, 1096-1106, 2016). Quantitative RT-PCR was performed as described below. The GenElute™ Mammalian Total RNA Miniprep Kit (Sigma-Aldrich) was used for extraction of total RNA, and the High Capacity cDNA Reverse Transcription Kit (Applied Biosystems, Carlsbad, CA) was used for cDNA synthesis. The 7500 Real Time PCR System (Applied Biosystems) was used for RT-PCR. Primers 5′-[…]-3′ (SEQ ID NO: 31) and 5′-[…]-3′ (SEQ ID NO: 32) and a probe 5′-FAM-[…]-MGB-3′ (SEQ ID NO: 33) were used for pregenomic RNA. Primer pairs and probes for LIPG, NTCP. 18SrRNA, and ACTB were obtained from the TaqMan assay reagents library.
When the abundance of LIPG expression was compared among different liver cell lines. […] HepG2-NTCP-C4 cells with overexpression of FLAG-LIPG (HepG2-NTCP-C4-LIPG cells) were established (FIG. 2B), and the attachment and uptake of HBV into cells were assayed in the resulting cells. Heparin, which has been reported to inhibit HBV attachment (Schulze. A. et al., Hepatology 46: 1759-1768, 2007), and heparanase, an endo-β-D-glucuronidase that cleaves the heparan sulfate side chain in heparan sulfate proteoglycans (HSPGs) (Bame, KJ. Glycobiology,11: 91R-98R,2001), were used as control compounds. Cells (HepG2-NTCP-C4-LIPG cells and HepG2-NTCP-C4 control cells) were pretreated with these compounds for 1 hour and then with HBV at 4° C. for 3 hours to allow HBV to attach the cells, washed to wash out HBV, and further incubated at 37° C. for 12 hours to detect uptake of HBV (FIG. 2C). In addition, the cells were further cultured in a conventional culture medium for 3 days after HBV inoculation to detect HBV DNA and cccDNA in the cells (FIG. 2C). HBV attachment was detected by qPCR of HBV-DNA at 3 hours after HBV inoculation at 4° C. in the presence or absence of the compound (heparin or heparanase). HBV attachment (FIG. 2D), uptake (FIG. 2E), and replication of HBV DNA and cccDNA (FIGS. 2F and 2G) were all increased in the HepG2-NTCP-C4-LIPG cells compared to the HepG2-NTCP-C4 control cells.
Next, the effect of a LIPG inhibitor (GSK-264220A) on HBV attachment and uptake was examined. […] At the same time, this inhibitor had no effect on HepG2-NTCP-C4 control cells.

HBV-cccDNA = conditions: Patent Document 1; cited from earlier work
HBV [3] = experiment: HBV attachment, uptake and replication in Huh7-LIPG cells; type: cell-based; conditions: Huh7-LIPG cells infected with HBV, 3 days after treatment
Procedure: as §1
When the abundance of LIPG expression was compared among different liver cell lines. […] HepG2-NTCP-C4 cells with overexpression of FLAG-LIPG (HepG2-NTCP-C4-LIPG cells) were established (FIG. 2B), and the attachment and uptake of HBV into cells were assayed in the resulting cells. Heparin, which has been reported to inhibit HBV attachment (Schulze. A. et al., Hepatology 46: 1759-1768, 2007), and heparanase, an endo-β-D-glucuronidase that cleaves the heparan sulfate side chain in heparan sulfate proteoglycans (HSPGs) (Bame, KJ. Glycobiology,11: 91R-98R,2001), were used as control compounds. […] HBV attachment was detected by qPCR of HBV-DNA at 3 hours after HBV inoculation at 4° C. in the presence or absence of the compound (heparin or heparanase). […]

HBV [4] = conditions: in vitro cell system; cited from earlier work
[5] = tested on: LIPG-mediated HBV attachment and entry (preS1 peptide) in PXB cells; experiment: Uptake of TMR-labeled preS1 peptide into PXB cells (confocal microscopy); type: cell-based, human; conditions: PXB cells treated with FLAG-LIPG 3 hours
Procedure: FIG. 22-1 The effect of LIPG to promote HBV entry into cells and the effect of a LIPG-binding peptide and Netrin-1 to inhibit HBV entry into cells. A: PXB cells were mixed with a purified form of FLAG-LIPG and incubated for 3 hours. The resulting cells were mixed with a preS1 peptide fluorescently labeled with TMR (tetramethylrhodamine) and incubated for 30 minutes, and then observed with a confocal microscope. The fluorescence of the preS1 peptide was detected, and the fluorescence intensity was normalized to the DAPI fluorescence intensity. p<0.05. B: PXB cells were treated with 100 nM LIPG-binding peptide LIPH4-23S or LIPH4-NTNBS for 15 hours, and a purified form of FLAG-LIPG was added thereto, followed by incubation for 3 hours. The resulting cells were mixed with a preS1 peptide fluorescently labeled with TMR and incubated for 30 minutes, and then observed with a confocal microscope. The fluorescence of the preS1 peptide was detected, and the fluorescence intensity was normalized to the DAPI fluorescence intensity. *:p<0.05. C: PXB cells were mixed with Netrin-1 and incubated for 3 hours. […] The fluorescence of the preS1 peptide was detected, and the fluorescence intensity was normalized to the DAPI fluorescence intensity. *:p<0.05. […] The fluorescence of the preS1 peptide was detected, and the fluorescence intensity was normalized to the DAPI fluorescence intensity. […]

[6] = molecular target: T1, binding between preS1 and heparan sulfate enhanced by LIPG (Homo sapiens, UniProt Q9Y5X9); experiment: Plate assay of binding between preS1 peptide and immobilized heparan sulfate with FLAG-LIPG; conditions: 10, 25, or 50 fmol of FLAG-LIPG per well
T1 construct: FLAG
T1 sequence (Q9Y5X9 21-500): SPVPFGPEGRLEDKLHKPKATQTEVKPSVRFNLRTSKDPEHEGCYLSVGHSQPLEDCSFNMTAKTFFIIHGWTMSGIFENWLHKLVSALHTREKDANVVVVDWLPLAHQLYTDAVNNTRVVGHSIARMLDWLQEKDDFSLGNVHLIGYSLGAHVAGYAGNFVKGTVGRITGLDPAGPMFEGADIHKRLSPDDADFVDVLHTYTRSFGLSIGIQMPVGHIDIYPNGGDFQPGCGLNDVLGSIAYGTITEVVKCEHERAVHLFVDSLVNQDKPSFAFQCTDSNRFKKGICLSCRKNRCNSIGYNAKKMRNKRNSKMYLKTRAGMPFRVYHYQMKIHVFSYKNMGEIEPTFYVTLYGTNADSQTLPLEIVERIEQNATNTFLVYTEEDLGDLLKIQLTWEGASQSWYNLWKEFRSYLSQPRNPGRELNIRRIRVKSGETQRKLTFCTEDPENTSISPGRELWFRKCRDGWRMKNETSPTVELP
Procedure: FIG. 22-2 The effect of LIPG to promote HBV entry into cells and the effect of a LIPG-binding peptide and Netrin-1 to inhibit HBV entry into cells. E: A biotin-labeled form of heparan sulfate was added to a streptavidin-coated 96 well plate and left overnight at 4° C. to allow the heparan sulfate to bind to the plate. This plate was washed with TBS, and 10, 25, or 50 fmol of FLAG-LIPG was then added to each well to allow the reaction to proceed at room temperature for 2 hours. After the plate was washed, 10 or 100 nmol of LIPG-binding peptide LIPH4-NTNBS, LIPH4-23S, LIPH4-NTNBSA, or LIPH4-23SA was added to each well to allow the treatment to proceed at room temperature for 1 hour. Subsequently, the plate was washed, and 0.1 nmol of preS1-TMR was added to each well to allow the treatment to proceed at room temperature for another 1 hour. The plate was washed and then placed in a plate reader to measure the fluorescence of TMR.
Furthermore, PXB cells treated with Netrin-1 were further treated with FLAG-LIPG, and the uptake of the preS1 peptide was examined, to find that the enhancement of the uptake of the preS1 peptide by FLAG-LIPG was suppressed by Netrin-1 (FIG. 22D). In addition, a biotin-labeled heparan sulfate was immobilized on a streptavidin-coated plate and the preS1 peptide was added thereto to study the binding between the preS1 region of HBV and heparan sulfate present on the cell surface.

Molecule: Cc1oc(S(=O)(=O)N2CCCCC2)cc1NC(=O)Nc1ccccc1 [GSK-264220A]
- HBV attachment and uptake (HBV [1]): no effect
- HBV attachment (HBV-DNA) (HBV [2]; 3 hours after HBV inoculation at 4° C.): inhibited
- HBV uptake (HBV-DNA) (HBV [2]; 12 hours after being recultured at 37° C.): inhibited
- HBV-cccDNA (HBV-cccDNA): effective in reducing HBV-cccDNA
- LIPG-mediated increase in HBV replication (cccDNA) (HBV [3]): reduced HBV replication

Molecule: COc1cc2ncnc(Nc3ccc(F)c(Cl)c3)c2cc1OCCCN1CCOCC1 [gefitinib]
- HBV infection (HBV [4]): reduces HBV infection

B1: FLAG-LIPG: purified form of FLAG-tagged LIPG added to PXB cells or plate (protein)
chain: SPVPFGPEGRLEDKLHKPKATQTEVKPSVRFNLRTSKDPEHEGCYLSVGHSQPLEDCSFNMTAKTFFIIHGWTMSGIFENWLHKLVSALHTREKDANVVVVDWLPLAHQLYTDAVNNTRVVGHSIARMLDWLQEKDDFSLGNVHLIGYSLGAHVAGYAGNFVKGTVGRITGLDPAGPMFEGADIHKRLSPDDADFVDVLHTYTRSFGLSIGIQMPVGHIDIYPNGGDFQPGCGLNDVLGSIAYGTITEVVKCEHERAVHLFVDSLVNQDKPSFAFQCTDSNRFKKGICLSCRKNRCNSIGYNAKKMRNKRNSKMYLKTRAGMPFRVYHYQMKIHVFSYKNMGEIEPTFYVTLYGTNADSQTLPLEIVERIEQNATNTFLVYTEEDLGDLLKIQLTWEGASQSWYNLWKEFRSYLSQPRNPGRELNIRRIRVKSGETQRKLTFCTEDPENTSISPGRELWFRKCRDGWRMKNETSPTVELPDYKDDDDK
- preS1 peptide present in the cells [5]: increased by FLAG-LIPG in a concentration-dependent manner
- binding between preS1 and heparan sulfate (TMR fluorescence) [6]: enhanced by FLAG-LIPG in a concentration-dependent manner
